Earlier results on one compound are cited in patent US11642396B2 (priority 2013, dated 2023).

The subject of the series is H7N9 infection. To be noted: human, in vivo.

Each structure is given as a SMILES string.

Consider `CCOC(=O)C1=C[C@@H](OC(CC)CC)[C@H](NC(C)=O)[C@@H](N)C1` [oseltamivir], for which the “viral load in the respiratory tract of patients” value is “reduce the viral load”.
